The values that follow come from patent publication US7541360B2, “4-amino-7,8-dihydropteridines, pharmaceutical compositions containing them and their use for the treatment of diseases which are caused by an increased nitric oxide level” (Vasopharm GmbH, priority 2003, dated 2009).

The data set can be described thus: In vivo stability: half-life for blood clearance after intravenous injection, venous blood analysed by LC-MS/MS. Particulars: i.v. 1-10 mg/kg, male Sprague-Dawley rats; for t1/2 (dihydro), half-life for blood clearance: corresponding dihydro-derivative formed spontaneously in vivo from the injected tetrahydro-compound, venous blood; for t1/2 (tetrahydro), half-life for blood clearance: injected tetrahydro-compound, venous blood up to eight hours. As for the experimental part:
The compounds 4-N-cyclohexylmethylamino-5,6,7,8-tetrahydrobiopterin (compound A), 2-amino-4-piperidino-6-phenyl-(R,S)-5,6,7,8-tetrahydropteridin (compound B) and 2-amino-4-di-n-propylamino-6-(4-methoxyphenyl)-(R,S)-5,6,7,8-tetrahydropteridin (compound C) were intravenously injected into male Sprague-Dawley rats (1-10 mg/kg). Venous blood samples were taken up to eight hours after the injections and analyzed for the injected tetrahydro-compounds and for their corresponding dihydro-derivatives, which are spontaneously formed in vivo, by LC-MS/MS.

Turning to “2-amino-4-di-n-propylamino-6-(4-methoxyphenyl)-(R,S)-5,6,7,8-tetrahydropteridin [Compound C]”, the “t1/2 (dihydro), half-life for blood clearance” value is recorded as approximately 30 min and the “t1/2 (tetrahydro), half-life for blood clearance” value is reported as <<5 min.
For the compound `Nc1nc2c(c(N3CCCCC3)n1)NC(c1ccccc1)CN2` (racemic) [Compound B, 2-amino-4-piperidino-6-phenyl-(R,S)-5,6,7,8-tetrahydropteridin], the “t1/2 (dihydro), half-life for blood clearance” value is given as approximately 20 min and the “t1/2 (tetrahydro), half-life for blood clearance” value is listed as <<5 min.
The matching figures for `CC(O)C(O)C1CNc2nc(N)nc(NCC3CCCCC3)c2N1` (stereo not drawn) [Compound A, 4-N-cyclohexylmethylamino-5,6,7,8-tetrahydrobiopterin]: 48 min and <<5 min.
